Reference: patent US20030008897A1, “Method of controlling weight gain associated with therapeutic drugs” (priority 2000, published 2003)

Columns and labels:
[1] = target: [3H]Noradenaline reuptake (Rattus norvegicus, UniProt Q9WTR4); test: in vitro [3H]noradrenaline reuptake inhibition in rat brain tissue; assay type: biochemical; settings: means of ≧3 separate determinations
[2] = tested on: female Sprague-Dawley rats; test: clozapine-induced hyperphagia (food intake) in rats; assay type: in vivo, rat; settings: for Mean food intake ± SEM: 3 mg/kg orally, food intake over 2 h, n=10, vehicle 6.5 ± 0.9
Procedure: Experiments were performed in individually-housed female Sprague-Dawley rats with free access to food (powdered rat chow containing 20% lard) and tap water at all times. On the day of the experiment, animals (n=10) were dosed orally with vehicle; the neuroleptic clozapine 3 mg/kg; sibutramine 3 mg/kg or sibutramine plus clozapine 3 mg/kg; and their food intake was monitored over 2 h.

| SMILES | Ki [1] | Mean food intake ± SEM [2] | effect on food intake compared to vehicle-treated control group ([2]; 3 mg/kg po, over 2 h) |
| --- | --- | --- | --- |
| CC(NC(C)(C)C)C(=O)c1cccc(Cl)c1 (stereo not shown) [Bupropion] | 2590 nM |  |  |
| CN1CCN(C2=Nc3cc(Cl)ccc3Nc3ccccc32)CC1 [Clozapine] |  | 9.3 ± 0.7 g/kg |  |
| CC(C)CC(N(C)C)C1(c2ccc(Cl)cc2)CCC1 (stereo not shown) [Sibutramine, N,N-dimethyl-1-[1-(4-chlorophenyl)cyclobutyl]-3-methylbutylamine] |  | 1.7 ± 0.6 g/kg | significantly decreased food intake |
